Here are results for one molecule from patent US20150119476A1, “DEVELOPMENT, CHARACTERIZATION, AND USE OF AN ANTI-HYPUSINATED eIF5A ANTIBODY TO DIAGNOSE DIABETES” (Indiana University Research and Technology Corp., priority 2013, published 2015).

One assay concerns 293T cells. In words: GC7 treatment of transfected 293T cells, immunoblot of cell extracts. The format is cell-based, human. On the procedure: (§1) Cell culture, transfection and DHS inhibition—Human 293T and rat INS-1(832/13) β cells were cultured as described. Cells were transiently transfected with plasmids encoding EGFP-eIF5A, EGFP-eIF5A(K50A) and EGFP-DHS constructs using Lipofectamine 2000 (Invitrogen) for 16 hours before cell extraction or immunofluorescence analysis. The DHS inhibitor GC7 (Biosearch Technologies) was prepared and used in cell culture as previously described.
(§2) Antibodies and immunoblotting—The rabbit polyclonal antibody IU-88 against hypusinated human eIF5A was generated in rabbits using the synthetic hypusine-containing peptide C-Ahx-STSKTG[hypusine]HGHAKV-amide (SEQ ID NO. 1) by contract to 21st Century Biochemicals. Monoclonal mouse pan-anti-eIF5A antibody was from BD Biosciences and anti-actin antibody was from MP Biomedicals. Immunoblot analysis was visualized using a LiCor Odyssey fluorescence system following electrophoresis on a 4-20% SDS polyacrylamide gel. Primary antibodies were diluted 1:1500 (IU-88) and 1:10,000 (anti-pan-eIF5A).
Referring now to FIG. 1D. When 293T cells are transfected with GFP-eIF5A, a weak but detectable signal corresponding to GFP-eIF5A is observed using IU-88 (lane 1).
For orientation: A western blot detects proteins with antibodies after separation by electrophoresis.

The test system of the next assay is INS-1 β cells. Kind of assay: GC7 treatment of transfected INS-1 cells, immunoblot of cell extracts. The format is cell-based, rat. The settings on record: increasing GC7 concentrations, FIG. 1E. On the procedure: as §1, §2
Referring now to FIG. 1E.

A further assay addresses T1, DHS (Homo sapiens, UniProt P49366).
T1 construct: His6 (N); made in house; host or cells: E. coli
T1 sequence (P49366 1-369): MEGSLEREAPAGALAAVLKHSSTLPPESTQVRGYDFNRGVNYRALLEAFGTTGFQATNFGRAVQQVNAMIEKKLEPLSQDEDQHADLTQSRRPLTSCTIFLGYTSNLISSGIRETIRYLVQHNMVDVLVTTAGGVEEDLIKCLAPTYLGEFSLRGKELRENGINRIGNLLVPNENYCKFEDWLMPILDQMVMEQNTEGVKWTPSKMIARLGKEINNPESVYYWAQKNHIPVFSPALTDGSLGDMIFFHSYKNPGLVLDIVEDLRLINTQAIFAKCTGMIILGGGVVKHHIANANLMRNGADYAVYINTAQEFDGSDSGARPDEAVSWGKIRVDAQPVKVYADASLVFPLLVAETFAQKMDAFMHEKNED
Kind of assay: in vitro hypusination reaction of recombinant eIF5A with DHS, DHH, spermidine and GC7, immunoblot read-out. The format is biochemical.
From the text: Reactions in vitro—For in vitro experiments, eIF5A protein was purified from E. coli as a GST fusion, after which the GST tag was proteolytically removed. DHS protein was purified from E. coli as an N-terminal His6 fusion. Purified human DHH protein was purchased from OriGene. The hypusination reactions in vitro proceeded as previously published.
as §2
In order to determine if IU-88 specifically recognizes the deoxyhypusine or hypusine forms of eIF5A, immunoblots of reactions in which recombinant human eIF5A was incubated in vitro with DHS, DHH, spermidine, and/or the potent DHS inhibitor GC7 were performed. Referring now to FIG. 1A. […] Increasing the DHS concentration and time of incubation led to increasing eIF5A signal intensity in these studies (data not shown).

Consider `NCCCCCCCN=C(N)N` [GC7], for which the “GFP-eIF5A signal detected by IU-88” value in the assay on 293T cells (293T cells co-transfected with GFP-DHS, GC7, FIG. 1D lanes 5 and 6) is recorded as “corresponding decrease in the presence of GC7”. In addition, in the assay on 293T cells (293T cells transfected with GFP-eIF5A, increasing concentrations of GC7, FIG. 1D lanes 2 and 3), the “GFP-eIF5A signal detected by IU-88” value was “signal decreases further”. Also, the “endogenous eIF5A signal recognized by IU-88” value with 293T cells (293T cells, increasing GC7) is listed as “observed to decrease with increasing GC7”. Further, in the assay with INS-1 β cells, the “GFP-eIF5A signal observed with IU-88” value was “reduces the GFP-eIF5A signal observed with IU-88” and the “signal observed with the pan-anti-eIF5A antibody” value was “also reduces the signal observed with the pan-anti-eIF5A antibody”. The “eIF5A signal intensity (IU-88 immunoblot)” value on DHS (co-incubation with 300 nM GC7, FIG. 1A lanes 3 and 6) is “reduction in eIF5A signal intensity”. Also, the “inhibition of eIF5A signal intensity (IU-88 immunoblot)” value on DHS (higher concentrations of GC7 up to 10 μM, FIG. 1B) is recorded as “near-complete inhibition”.
